Calls of active or inactive are those of the source. The rule behind the calls is not given here.
Tests used:
[1] = system: Cryptococcus neoformans; assay: Antimicrobial activity against Cryptococcus neoformans ATCC 90113 by Alamar blue method; type: functional, organism-based
[2] = system: Candida albicans; assay: Antimicrobial activity against Candida albicans ATCC 90028 by Alamar blue method; type: functional, organism-based
[3] = system: Nakaseomyces glabratus; assay: Antimicrobial activity against Candida glabrata by Alamar blue method; type: functional, organism-based
[4] = system: Pichia kudriavzevii; assay: Antimicrobial activity against Candida krusei ATCC 6258 by Alamar blue method; type: functional, organism-based
[5] = system: Vero; assay: Cytotoxicity against african green monkey Vero cells at 10 ug/ml after 48 hrs by Neutral Red dye assay; type: cell-based; details: chlorocebus sabaeus
[6] = system: Staphylococcus aureus; assay: Antimicrobial activity against Staphylococcus aureus ATCC 29213 by Alamar blue method; type: functional, organism-based
[7] = system: Aspergillus fumigatus; assay: Antimicrobial activity against Aspergillus fumigatus ATCC 204305 by Alamar blue method; type: functional, organism-based
[8] = system: Staphylococcus aureus; assay: Antimicrobial activity against methicillin-resistant Staphylococcus aureus ATCC 33591 by Alamar blue method; type: functional, organism-based
[9] = system: Mycobacterium intracellulare; assay: Antimicrobial activity against Mycobacterium intracellulare ATCC 23068 by Alamar blue method; type: functional, organism-based
[10] = Staphylococcus aureus, ATCC 29213
[11] = Staphylococcus aureus, ATCC 29213, read-out: IC50

FC(F)(F)c1cccc(CSc2cc3ccccc3[n+](CCCCCC3CCCCC3)c2)c1.[I-]
IC50 [1]: 0.28 µg/mL
MFC [1]: 0.63 µg/mL
MIC [1]: 0.63 µg/mL
IC50 [2]: 1.2 µg/mL
MFC [2]: 2.5 µg/mL
MIC [2]: 2.5 µg/mL
IC50 [3]: 2.8 µg/mL
MFC [3]: 5 µg/mL
MIC [3]: 5 µg/mL
IC50 [4]: 1.4 µg/mL
MFC [4]: 2.5 µg/mL
MIC [4]: 2.5 µg/mL
Activity [5]: Non-toxic
MBC [6, 10]: 2.5 µg/mL
MIC [6, 10]: 0.63 µg/mL
IC50 [6, 11]: 0.4 µg/mL
IC50 [7]: 1.9 µg/mL
MFC [7]: 2.5 µg/mL
MIC [7]: 2.5 µg/mL
IC50 [8]: 0.56 µg/mL
MBC [8]: 2.5 µg/mL
MIC [8]: 1.3 µg/mL
IC50 [9]: 7.2 µg/mL
MBC [9]: 10 µg/mL
MIC [9]: 10 µg/mL

Fc1ccc(CSc2cc3ccccc3[n+](CCCCCC3CCCCC3)c2)cc1.[I-]
MFC [1]: 0.63 µg/mL
MIC [1]: 0.63 µg/mL
IC50 [2]: 1.9 µg/mL
MFC [2]: 5 µg/mL
MIC [2]: 5 µg/mL
IC50 [3]: 1.3 µg/mL
MFC [3]: 2.5 µg/mL
MIC [3]: 2.5 µg/mL
IC50 [4]: 0.14 µg/mL
MFC [4]: 0.63 µg/mL
MIC [4]: 0.63 µg/mL
Activity [5]: Non-toxic
MBC [6, 10]: 2.5 µg/mL
MIC [6, 10]: 0.63 µg/mL
IC50 [6, 11]: 0.34 µg/mL
IC50 [7]: 5.2 µg/mL
MFC [7]: 10 µg/mL
MIC [7]: 10 µg/mL
IC50 [8]: 0.34 µg/mL
MBC [8]: 2.5 µg/mL
MIC [8]: 0.63 µg/mL
IC50 [9]: 6.9 µg/mL
MBC [9]: 10 µg/mL
MIC [9]: 10 µg/mL

Clc1cc(Cl)cc(CSc2cc3ccccc3[n+](CCCCCC3CCCCC3)c2)c1.[I-]
IC50 [1]: 0.63 µg/mL
MFC [1]: 1.3 µg/mL
MIC [1]: 1.3 µg/mL
IC50 [2]: 2.8 µg/mL
MFC [2]: 5 µg/mL
MIC [2]: 5 µg/mL
IC50 [3]: > 20 µg/mL
MFC [3]: > 20 µg/mL
MIC [3]: > 20 µg/mL
IC50 [4]: 17 µg/mL
MFC [4]: > 20 µg/mL
MIC [4]: > 20 µg/mL
Activity [5]: Non-toxic
IC50 [6]: Not Active
MBC [6]: inactive
MIC [6]: inactive
IC50 [7]: > 20 µg/mL
MFC [7]: > 20 µg/mL
MIC [7]: > 20 µg/mL
IC50 [8]: 1.3 µg/mL
MBC [8]: 10 µg/mL
MIC [8]: 2.5 µg/mL
IC50 [9]: 3.1 µg/mL
MBC [9]: 5 µg/mL
MIC [9]: 5 µg/mL

FC(F)(F)c1ccccc1CSc1cc2ccccc2[n+](CCCCCC2CCCCC2)c1.[I-]
IC50 [1]: 0.42 µg/mL
MFC [1]: 1.3 µg/mL
MIC [1]: 0.63 µg/mL
IC50 [2]: 0.97 µg/mL
MFC [2]: 5 µg/mL
MIC [2]: 2.5 µg/mL
IC50 [3]: 2.7 µg/mL
MIC [3]: 5 µg/mL
IC50 [4]: 0.43 µg/mL
MIC [4]: 1.3 µg/mL
Activity [5]: Non-toxic
MBC [6, 10]: 1.3 µg/mL
MIC [6, 10]: 0.31 µg/mL
IC50 [6, 11]: 0.19 µg/mL
IC50 [7]: 3.7 µg/mL
MFC [7]: 10 µg/mL
MIC [7]: 5 µg/mL
IC50 [8]: 0.22 µg/mL
MBC [8]: 1.3 µg/mL
MIC [8]: 0.63 µg/mL
IC50 [9]: 3.4 µg/mL
MBC [9]: 5 µg/mL
MIC [9]: 5 µg/mL

N#Cc1ccccc1CSc1cc2ccccc2[n+](CCCCCC2CCCCC2)c1.[I-]
IC50 [1]: 0.5 µg/mL
MFC [1]: 2.5 µg/mL
MIC [1]: 1.3 µg/mL
IC50 [2]: 1.6 µg/mL
MFC [2]: 10 µg/mL
MIC [2]: 5 µg/mL
IC50 [3]: > 20 µg/mL
MFC [3]: > 20 µg/mL
MIC [3]: > 20 µg/mL
IC50 [4]: 1.5 µg/mL
MFC [4]: 5 µg/mL
MIC [4]: 5 µg/mL
Activity [5]: Non-toxic
MBC [6, 10]: 5 µg/mL
MIC [6, 10]: 1.3 µg/mL
IC50 [6, 11]: 0.68 µg/mL
IC50 [7]: 11 µg/mL
MFC [7]: 20 µg/mL
MIC [7]: 20 µg/mL
IC50 [8]: 0.97 µg/mL
MBC [8]: 10 µg/mL
MIC [8]: 2.5 µg/mL
IC50 [9]: 6.8 µg/mL
MBC [9]: 10 µg/mL
MIC [9]: 10 µg/mL

Cc1ccccc1CSc1cc2ccccc2[n+](CCCCCC2CCCCC2)c1.[I-]
IC50 [1]: 0.39 µg/mL
MIC [1]: 0.63 µg/mL
IC50 [2]: 1.4 µg/mL
MIC [2]: 2.5 µg/mL
IC50 [3]: 2.8 µg/mL
MFC [3]: 5 µg/mL
MIC [3]: 5 µg/mL
IC50 [4]: 0.84 µg/mL
MFC [4]: 2.5 µg/mL
MIC [4]: 2.5 µg/mL
Activity [5]: Non-toxic
MBC [6, 10]: 2.5 µg/mL
MIC [6, 10]: 0.63 µg/mL
IC50 [6, 11]: 0.4 µg/mL
IC50 [7]: 4.1 µg/mL
MIC [7]: 10 µg/mL
IC50 [8]: 0.73 µg/mL
MBC [8]: 2.5 µg/mL
MIC [8]: 1.3 µg/mL
IC50 [9]: 6.7 µg/mL
MBC [9]: 10 µg/mL
MIC [9]: 10 µg/mL

Clc1ccc(CSc2cc3ccccc3[n+](CCCCCC3CCCCC3)c2)cc1Cl.[I-]
IC50 [1]: 0.45 µg/mL
MFC [1]: 0.63 µg/mL
MIC [1]: 0.63 µg/mL
IC50 [2]: 1.1 µg/mL
MFC [2]: 2.5 µg/mL
MIC [2]: 2.5 µg/mL
IC50 [3]: 3 µg/mL
MFC [3]: 5 µg/mL
MIC [3]: 5 µg/mL
IC50 [4]: 0.3 µg/mL
MFC [4]: 1.3 µg/mL
MIC [4]: 1.3 µg/mL
Activity [5]: Non-toxic
MBC [6, 10]: 2.5 µg/mL
MIC [6, 10]: 2.5 µg/mL
IC50 [6, 11]: 0.5 µg/mL
IC50 [7]: 2.8 µg/mL
MFC [7]: 5 µg/mL
MIC [7]: 5 µg/mL
IC50 [8]: 0.18 µg/mL
MBC [8]: 1.3 µg/mL
MIC [8]: 1.3 µg/mL
IC50 [9]: 4.5 µg/mL
MBC [9]: 10 µg/mL
MIC [9]: 5 µg/mL

Source: ChEMBL document CHEMBL3085759, “Structure-activity relationship (SAR) and preliminary mode of action studies of 3-substituted benzylthioquinolinium iodide as anti-opportunistic infection agents” (Eur J Med Chem, 2013)
